These results are taken from patent US20210403435A1, “HERBICIDAL COMPOUNDS” (SYNGENTA CROP PROTECTION AG, priority 2018, published 2021).

Common to all, as to test: Post-emergence efficacy, glasshouse, evaluated after 13 days
Format in all cases: in vivo

The test system of assay [1] is Setaria faberi (SETFA). The following applies: Setaria faberi, 312 h; post-emergence application, 500 g/Ha, evaluated after 13 days; read-out: Control of weed species SETFA (100=total damage to plant; 0=no damage to plant). A digest of the protocol:
(§1)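 Foliar application to young plants (14 d post-sowing) in standard soil. Growth conditions before and after: 24/16 °C, 14 h light, 65% humidity. Percent damage read at 13 days after treatment.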

Assay [2] concerns Ipomoea hederacea (IPOHE). As to conditions: Ipomoea hederacea, 312 h; post-emergence application, 500 g/Ha, evaluated after 13 days; read-out: Control of weed species IPOHE (100=total damage to plant; 0=no damage to plant). An outline of the steps: as §1
The subject of assay [3] is Digitaria sanguinalis (DIGSA). The following applies: Digitaria sanguinalis, 312 h; post-emergence application, 500 g/Ha, evaluated after 13 days; read-out: Control of weed species DIGSA (100=total damage to plant; 0=no damage to plant). An outline of the steps: as §1
The test system of assay [4] is Chenopodium album (CHEAL). As to conditions: Chenopodium album, 312 h; post-emergence application, 500 g/Ha, evaluated after 13 days; read-out: Control of weed species CHEAL (100=total damage to plant; 0=no damage to plant). A digest of the protocol:
as §1

Assay [5] has as its system Euphorbia heterophylla (EPHHL). The following applies: Euphorbia heterophylla, 312 h; post-emergence application, 500 g/Ha, evaluated after 13 days; read-out: Control of weed species EPHHL (100=total damage to plant; 0=no damage to plant). An outline of the steps: as §1
The test system of assay [6] is Amaranthus palmeri (AMAPA). As to conditions: Amaranthus palmeri, 312 h; post-emergence application, 500 g/Ha, evaluated after 13 days; read-out: Control of weed species AMAPA (100=total damage to plant; 0=no damage to plant). An outline of the steps: as §1
Assay [7] relates to Lolium perenne (LOLPE). The following applies: Lolium perenne, 312 h; post-emergence application, 500 g/Ha, evaluated after 13 days; read-out: Control of weed species LOLPE (100=total damage to plant; 0=no damage to plant). An outline of the steps:
as §1

For assay [8], the system named is Eleusine indica (ELEIN). The following applies: Eleusine indica, 312 h; post-emergence application, 500 g/Ha, evaluated after 13 days; read-out: Control of weed species ELEIN (100=total damage to plant; 0=no damage to plant). A digest of the protocol:
as §1

In assay [9] the test system is Echinochloa crus-galli (ECHCG). As to conditions: Echinochloa crus-galli, 312 h; post-emergence application, 500 g/Ha, evaluated after 13 days; read-out: Control of weed species ECHCG (100=total damage to plant; 0=no damage to plant). A digest of the protocol:
as §1

Take `CCSCCNC(=O)c1cc[n+](CCC(=O)O)nc1` [Compound A120]: the pest or weed control at 500 g/ha amounted to 70% in assay [1]; 10% in [2]; 100% in [3]; 80% in assay [4]; 90% in [5]; 100% in [6]. The pest or weed control at 500 g/ha was found to be 40% in [7], 50% in [8] and 50% in assay [9].

Take `CC(C)CNC(=O)c1cc[n+](CCS(=O)(=O)[O-])nc1` [Compound A37]: the pest or weed control at 500 g/ha in [1] was 70%; in assay [2] it was 50%; in assay [3], 70%; in assay [4] it was 80%; in assay [5] it was 70%; in [6], 100%. Also, the pest or weed control at 500 g/ha in [7] amounted to 50%; in [8] it was 60%; in [9], 50%.

Consider `O=C(NCC1CC1)c1cc[n+](CCS(=O)(=O)[O-])nc1` [Compound A25], for which the pest or weed control at 500 g/ha in assay [1] came to 80%; in [2], 60%; in [3], 80%; in [4] it was 90%; in assay [5], 80%; in assay [6], 100%. Further, the pest or weed control at 500 g/ha in assay [7] came out at 60%; in [8], 90%; in assay [9] it was 70%.

For `O=C(NCc1ccccc1)c1cc[n+](CCS(=O)(=O)[O-])nc1` [Compound A20], the pest or weed control at 500 g/ha came out at 90% in assay [1]; 50% in assay [2]; 60% in assay [3]; 100% in assay [4]; 80% in assay [5]; 100% in [6]. Also, the pest or weed control at 500 g/ha in [7] is 30%; in assay [8], 80%; in assay [9], 60%.

For `O=C(O)CC[n+]1ccc(C(=O)NCCc2ncccn2)cn1` [Compound A145], the pest or weed control at 500 g/ha in assay [1] was determined as 80%; in assay [2], 30%; in assay [3], 100%; in [4], 100%; in assay [5], 0%; in assay [6] it was 100%. The pest or weed control at 500 g/ha in assay [7] was found to be 70%; in assay [8] it was 100%; in [9], 60%.

Turning to `O=C(O)CC[n+]1ccc(C(=O)NCC(F)(F)C(F)(F)F)cn1` [Compound A97], the pest or weed control at 500 g/ha came out at 90% in [1]; 30% in assay [2]; 90% in [3]; 100% in assay [4]; 90% in [5]; 100% in [6]. For the same compound, the pest or weed control at 500 g/ha in assay [7] was 90%; in assay [8], 60%; in assay [9], 60%.

In the case of `O=C(O)CC[n+]1ccc(C(=O)NCCO)cn1` [Compound A44], the pest or weed control at 500 g/ha in assay [1], in assay [2], in assay [3], in assay [4], in [5] and in assay [6] was 100% in each case. Also, the values for the pest or weed control at 500 g/ha in assay [7], in assay [8] and in assay [9] were 30%, 30% and 90%, respectively.

As for `CN(C)C(=O)c1cn[n+](CCS(=O)(=O)O)cc1-c1ccccc1` [Compound A64], the pest or weed control at 500 g/ha worked out at 30% in assay [1]; 30% in [2]; 40% in [3]; 30% in assay [4]; 40% in assay [5]; 100% in assay [6]. Further, the pest or weed control at 500 g/ha was 20% in assay [7], 40% in assay [8] and 50% in assay [9].

`O=C(c1cc[n+](CCS(=O)(=O)[O-])nc1)N1CCOCC1` [Compound A28]: the pest or weed control at 500 g/ha came out at 70% in assay [1]; 60% in [2]; 70% in assay [3]; 90% in [4]; 80% in [5]; 100% in assay [6]. The pest or weed control at 500 g/ha in assay [7] was 60%; in [8], 70%; in assay [9], 50%.

With `O=C(O)CC[n+]1ccc(C(=O)NCc2ccccc2)cn1` [Compound A21], the pest or weed control at 500 g/ha in [1] stood at 60%; in assay [2] it was 60%; in assay [3], 70%; in assay [4] it was 90%; in assay [5], 90%; in assay [6], 90%. Also, the results for the pest or weed control at 500 g/ha in [7], in assay [8] and in [9] were 40%, 90% and 90%, respectively.

For the compound `CC(O)CCNC(=O)c1cc[n+](CCC(=O)O)nc1` (stereo not drawn) [Compound A127], the pest or weed control at 500 g/ha amounted to 100% in assay [1]; 30% in assay [2]; 100% in assay [3]; 80% in [4]; 70% in [5]; 100% in assay [6]. Also, the figures for the pest or weed control at 500 g/ha in [7], in [8] and in assay [9] were 80%, 100% and 50%, respectively.

On to `CCNC(=O)c1cc[n+](CC[C@H](N)C(=O)O)nc1` [Compound A91, [(1S)-1-carboxy-3-[4-(ethylcarbamoyl)pyridazin-1-ium-1-yl]propyl]ammonium dichloride], for which the pest or weed control at 500 g/ha came out at 70% in assay [1]; 30% in assay [2]; 60% in assay [3]; 50% in assay [4]; 20% in assay [5]; 70% in assay [6]. In addition, the pest or weed control at 500 g/ha turned out to be 60% in assay [7], 70% in assay [8] and 0% in assay [9].

Take `CNS(=O)(=O)CCNC(=O)c1cc[n+](CCC(=O)O)nc1` [Compound A111]: the pest or weed control at 500 g/ha was 100% in assay [1]; 40% in assay [2]; 100% in [3]; 90% in assay [4]; 90% in [5]; 100% in assay [6]. The figures for the pest or weed control at 500 g/ha in [7], in assay [8] and in assay [9] were 70%, 100% and 90%, respectively.

Regarding `O=C(NCc1ccc(F)cc1)c1cc[n+](CCS(=O)(=O)[O-])nc1` [Compound A23], the pest or weed control at 500 g/ha amounted to 70% in assay [1]; 50% in [2]; 60% in [3]; 70% in assay [4]; 60% in assay [5]; 100% in [6]. Besides, the pest or weed control at 500 g/ha stood at 20% in [7], 60% in assay [8] and 70% in assay [9].

`N#CCNC(=O)c1cc[n+](CCC(=O)O)nc1` [Compound A90]: the pest or weed control at 500 g/ha in assay [1] was determined as 100%; in assay [2], 80%; in [3], 100%; in [4], 90%; in assay [5], 100%; in assay [6], 100%. Also, the pest or weed control at 500 g/ha in [7] turned out to be 70%; in assay [8], 100%; in assay [9], 100%.
